The source of these data is the supplement of paper PMC10307832.

Holding throughout (assay): relative viability (nuclei count vs DMSO), 5 days (fraction); higher = more cells survive
Compound in the test “Erlotinib + Crizotinib”: C#Cc1cccc(Nc2ncnc3cc(OCCOC)c(OCCOC)cc23)c1 [Erlotinib] + C[C@@H](Oc1cc(-c2cnn(C3CCNCC3)c2)cnc1N)c1c(Cl)ccc(F)c1Cl [Crizotinib] (partner 1 µM)
The method, boiled down: (§1)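 Lung cancer cell lines were seeded in 1536-well plates and dosed by pin tool the next day, with either a single drug or a fixed anchor-drug dose combined with five library-drug doses (not always all listed) spaced in √10 steps. Five days later, one step fixed the cells and stained their nuclei (final 0.05% Triton X-100, 1% formaldehyde, 1 ug/ml Hoechst), and nuclei were counted on 4× images. Relative viability is the nuclei count in treated wells divided by the count in vehicle wells, and each value is the median of duplicate plates.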

Compound in the test “Erlotinib + Phenformin”: C#Cc1cccc(Nc2ncnc3cc(OCCOC)c(OCCOC)cc23)c1 [Erlotinib] + N=C(N)NC(=N)NCCc1ccccc1 [Phenformin] (partner 250 µM)
The method, boiled down:
as §1

Compound in the test “Erlotinib + Vorinostat”: C#Cc1cccc(Nc2ncnc3cc(OCCOC)c(OCCOC)cc23)c1 [Erlotinib] + O=C(CCCCCCC(=O)Nc1ccccc1)NO [Vorinostat] (partner 1 µM)
The method, boiled down:
as §1

Compound in the test “Erlotinib + Dasatinib”: C#Cc1cccc(Nc2ncnc3cc(OCCOC)c(OCCOC)cc23)c1 [Erlotinib] + Cc1nc(Nc2ncc(C(=O)Nc3c(C)cccc3Cl)s2)cc(N2CCN(CCO)CC2)n1 [Dasatinib] (partner 0.075 µM)
Summed up:
as §1

Compound in the test “AT9283 + Phenformin”: O=C(Nc1c[nH]nc1-c1nc2ccc(CN3CCOCC3)cc2[nH]1)NC1CC1 [AT9283] + N=C(N)NC(=N)NCCc1ccccc1 [Phenformin] (partner 250 µM)
Summed up:
as §1

For NCI-H441, the relative viability was 0.831 with Erlotinib + Crizotinib (first compound 0.02 µM); 0.751 in the test with Erlotinib + Crizotinib (first compound 0.2 µM); 0.772 with Erlotinib + Crizotinib (first compound 0.6325 µM); 0.677 with Erlotinib + Crizotinib (first compound 2 µM); 0.883 with Erlotinib + Phenformin (first compound 0.02 µM); 0.863 with Erlotinib + Phenformin (first compound 0.2 µM). For the same cell line, the relative viability with Erlotinib + Phenformin (first compound 0.6325 µM) was determined as 0.892; with Erlotinib + Vorinostat (first compound 0.02 µM), 0.841; in the test with Erlotinib + Vorinostat (first compound 0.2 µM), 0.725; in the test with Erlotinib + Vorinostat (first compound 0.6325 µM), 0.84; with Erlotinib + Vorinostat (first compound 2 µM), 0.745; in the test with Erlotinib + Dasatinib (first compound 0.02 µM), 0.651. Besides, the relative viability worked out at 0.554 in the test with Erlotinib + Dasatinib (first compound 0.2 µM); 0.508 with Erlotinib + Dasatinib (first compound 0.6325 µM); 0.61 with Erlotinib + Dasatinib (first compound 2 µM); 0.858 in the test with AT9283 + Phenformin (first compound 0.003 µM); 0.853 with AT9283 + Phenformin (first compound 0.03 µM); 0.286 in the test with AT9283 + Phenformin (first compound 0.09487 µM). The relative viability with AT9283 + Phenformin (first compound 0.3 µM) is 0.244.
